Source: the supplement of paper PMC10307832

Legend:
Assay in all cases: relative viability (nuclei count vs DMSO), 5 days (fraction); higher = more cells survive
[1] = compound: C1/C(=C\C2=CC=CS2)/C(=O)/C(=C/C3=CC=CS3)/C1 + NC(=O)Nc1cc(-c2cccc(F)c2)sc1C(=O)N[C@H]1CCCNC1 [AZD7762] (partner 0.2 µM)
Procedure, shortened: (§1)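 Lung cancer cell lines in 1536-well plates were dosed by pin tool the day after seeding, either with one drug alone or with a fixed anchor-drug dose plus five library-drug doses (not always all listed) in √10 steps. After 5 days, cells were fixed and their nuclei stained in one step (final 0.05% Triton X-100, 1% formaldehyde, 1 ug/ml Hoechst), then counted on 4× images. Relative viability is the nuclei count in treated wells divided by that in vehicle wells. Values are medians of duplicate plates.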

[2] = compound: C1/C(=C\C2=CC=CS2)/C(=O)/C(=C/C3=CC=CS3)/C1 + O=C(CCCCCCC(=O)Nc1ccccc1)NO [Vorinostat] (partner 1 µM)
Procedure, shortened: as §1

[3] = compound: C1/C(=C\C2=CC=CS2)/C(=O)/C(=C/C3=CC=CS3)/C1 + O=C(c1cc(Cc2n[nH]c(=O)c3ccccc23)ccc1F)N1CCN(C(=O)C2CC2)CC1 [Olaparib] (partner 8 µM)
Procedure, shortened: as §1

TPCA-1 + Vorinostat = compound: C1=CC(=CC=C1C2=CC(=C(S2)NC(=O)N)C(=O)N)F [TPCA-1] + O=C(CCCCCCC(=O)Nc1ccccc1)NO [Vorinostat] (partner 1 µM)
Procedure, shortened: as §1

| Cell Line | relative viability ([1]; first compound 0.2 µM) | relative viability ([1]; first compound 0.6325 µM) | relative viability ([1]; first compound 2 µM) | relative viability ([1]; first compound 6.325 µM) | relative viability ([1]; first compound 20 µM) | relative viability ([2]; first compound 0.2 µM) | relative viability ([2]; first compound 0.6325 µM) | relative viability ([2]; first compound 2 µM) | relative viability ([2]; first compound 6.325 µM) | relative viability ([2]; first compound 20 µM) | relative viability ([3]; first compound 0.2 µM) | relative viability ([3]; first compound 0.6325 µM) | relative viability ([3]; first compound 2 µM) | relative viability ([3]; first compound 6.325 µM) | relative viability ([3]; first compound 20 µM) | relative viability (TPCA-1 + Vorinostat; first compound 0.04 µM) | relative viability (TPCA-1 + Vorinostat; first compound 0.1265 µM) | relative viability (TPCA-1 + Vorinostat; first compound 0.4 µM) | relative viability (TPCA-1 + Vorinostat; first compound 1.265 µM) | relative viability (TPCA-1 + Vorinostat; first compound 4 µM) |
| --- | --- | --- | --- | --- | --- | --- | --- | --- | --- | --- | --- | --- | --- | --- | --- | --- | --- | --- | --- | --- |
| NCI-H522 | 0.936 | 0.809 | 0.822 | 0.9 | 0.94 | 0.967 | 0.911 | 0.893 | 1.01 | 0.909 | 0.626 | 0.643 | 0.657 | 0.625 | 0.742 | 1.03 | 0.819 | 1 | 0.842 | 0.987 |
| ChaGo-K-1 | 0.91 | 0.9 | 0.873 | 0.581 | 0.51 | 0.761 | 0.749 | 0.703 | 0.511 | 0.254 | 0.407 | 0.413 | 0.381 | 0.233 | 0.169 | 0.781 | 0.694 | 0.796 | 0.665 | 0.295 |
| EMC-BAC-2 | 1.19 | 1.1 | 1.09 | 0.91 | 1.12 | 0.351 | 0.473 | 0.453 | 0.455 | 0.489 | 0.51 | 0.495 | 0.484 | 0.424 | 0.514 | 0.461 | 0.447 | 0.615 | 0.413 | 0.203 |
| LCLC-103H | 0.772 | 0.742 | 0.9 | 0.613 | 0.783 | 0.805 | 0.842 | 0.859 | 0.698 | 0.765 | 0.738 | 0.795 | 0.739 | 0.68 | 0.722 | 0.839 | 0.764 | 0.818 | 0.525 | 0.363 |
| LK-2 | 0.548 | – | 0.562 | 0.408 | 0.421 | 0.255 | 0.337 | 0.432 | 0.324 | 0.32 | 0.769 | 0.787 | 0.765 | 0.853 | 0.753 | 0.343 | 0.161 | 0.287 | 0.267 | 0.237 |
| NCI-H2405 | 0.958 | 0.757 | 0.867 | 0.716 | 0.715 | 0.991 | 1.02 | 1.08 | 0.876 | 1.14 | 0.905 | 0.844 | 1.04 | 0.789 | 0.867 | 1.12 | 0.983 | 1.15 | 0.975 | 0.103 |
| NCI-H2087 | 1.46 | 1.29 | 1.18 | 1.17 | 1.25 | 0.623 | 0.656 | 0.7 | 0.616 | 0.361 | 0.708 | 0.528 | 0.699 | 0.561 | 0.594 | 0.734 | 0.759 | 0.911 | 0.629 | 0.266 |
| NCI-H460 | 0.684 | 0.595 | 0.634 | 0.618 | 0.609 | 0.859 | 0.724 | 0.783 | 0.398 | 0.635 | 0.548 | 0.455 | 0.503 | 0.398 | 0.449 | 0.878 | 0.686 | – | 0.682 | 0.563 |
| LOU-NH91 | 0.744 | 0.837 | 0.834 | 0.697 | 0.745 | 1.03 | 0.934 | 1.01 | 0.782 | 0.973 | 0.943 | 0.899 | 0.915 | 0.872 | 0.928 | 0.937 | 0.925 | 0.908 | 0.851 | 0.674 |
| NCI-H1651 | 0.474 | 0.511 | 0.486 | 0.505 | 0.45 | 0.553 | 0.63 | 0.694 | 0.509 | 0.558 | 0.174 | 0.207 | 0.197 | 0.19 | 0.229 | 0.571 | 0.429 | 0.629 | 0.496 | 0.239 |
| NCI-H441 | 1.35 | 1.22 | 1.29 | 1.01 | 1.13 | 0.863 | 0.676 | 0.683 | 0.743 | 0.78 | 0.556 | 0.493 | 0.532 | 0.404 | 0.569 | 0.776 | 0.636 | 0.717 | 0.577 | 0.476 |
